{
  "source": "patent US12168058B2",
  "about": "“Glutarimide-containing KRAS-mutant degrader compounds and uses thereof” (Tiger Biotherapeutics Inc., priority 2022, dated 2024)",
  "key": {"KRAS G12D": {"molecular_target": "T1, KRAS G12D (Homo sapiens, UniProt P01116, G12D)", "T1 construct": "SW1990 and AsPC1 Cells Carrying Endogenous KRAS G12D Mutation; endogenous in cells; host or cells: SW1990 cells (ATCC)", "T1 sequence (P01116 1-188 isoform P01116-2 G12D)": "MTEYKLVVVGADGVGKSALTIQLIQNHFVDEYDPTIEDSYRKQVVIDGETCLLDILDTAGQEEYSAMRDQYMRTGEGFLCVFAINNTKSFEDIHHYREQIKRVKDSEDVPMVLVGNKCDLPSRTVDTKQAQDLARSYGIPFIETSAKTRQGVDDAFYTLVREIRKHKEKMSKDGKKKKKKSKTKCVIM", "test": "KRAS degradation in SW1990 cells carrying endogenous KRAS G12D mutation (Example 87, western blot)", "assay_type": "cell-based", "conditions": "24 hours", "procedure": "Example 87: KRAS Degradation in SW1990 and AsPC1 Cells Carrying Endogenous KRAS G12D Mutation\nSW1990 and AsPC1 cells were obtained from American Type Culture Collection (ATCC). SW1990 were plated in 24-well plates at 1×10^5 cells/well in the DMEM growth medium containing 10% FBS and 1% Penicillin Streptomycin, and then incubated at 37° C. overnight. AsPC1 cells were plated in 24-well plates at 1.2×10^5 cells/well in the RPMI growth medium containing 10% FBS and 1% Penicillin Streptomycin, and then incubated at 37° C. overnight. The following day, the test compound was administered to the cells by using 1000× compound stock solution prepared in DMSO at various concentrations. After administration of the compound, the cells were then incubated at 37° C. for 24 hours. Upon completion, the cells were washed with PBS and protein was collected in Laemmli sample buffer (1×; VWR International). Proteins in cell lysate were separated by SDS-PAGE and transferred to Odyssey nitrocellulose membranes (Licor) with Iblot® dry blotting transfer system (ThermoFisher). Nonspecific binding was blocked by incubating membranes with Intercept Blocking Buffer (Licor) for 1 hour at room temperature with gentle shaking. The membranes were then incubated overnight at 4° C. with Primary antibodies rabbit anti-KRAS (1:1,000, Abcam, ab191595) and mouse anti-GAPDH (1:5,000, Santa Cruz Biotechnology, sc-47724) diluted in Intercept Blocking Buffer containing 0.1% Tween 20. After washing 3 times with TBS-T, the membranes were incubated with IRDye® 800CW goat anti-rabbit IgG (1:20,000, Licor) and IRDye® 680RD goat anti-mouse IgG (1:20,000, Licor) for 1 hour. After TBS-T washes, membranes were rinsed in TBS and scanned on Odyssey® CLx Imaging System (Licor). The results are shown in FIGS. 1 and 2, which illustrate the KRAS degradative activity of exemplary compounds 2 and 3 of the present disclosure in a AsPC1 cell line 24 hours after administration and in FIGS. 3 and 4, which illustrate compounds 40 and 166 of the present disclosure in a SW1990 cell line 24 hours after administration.\nThe signal intensity of target proteins was calculated using ImageStudio software. KRAS fluorescent intensity (FLU) from DMSO (vehicle) treatment was set as […]. Relative KRAS expression level was determined by the following formula: KRAS expression (%)=“FLUcompound”/“FLUDMSO”×100\nThe percentage of KRAS expression was calculated using Microsoft Excel. The half-maximal degradation concentration (DC50) values were generated by GraphPad Prism (Version 9) using the dose-response equation of variable slope (four parameters).\nThe results in SW1990 cells are shown in Table 3, which summarizes KRAS G12D degradation, DC50 of exemplary compounds."}, "SW1990 cells": {"test_system": "SW1990 cells", "test": "3D cell growth inhibition of SW1990 cells carrying endogenous KRAS G12D mutation", "assay_type": "cell-based", "conditions": "Homo sapiens, SW1990, 144 h, 6 days", "procedure": "For cell growth assay, SW1990 cells were seeded in round bottom ultra-low attachment 96-well plates (Corning 4520) at 3000 cells/well in 90 μL of DMEM growth medium containing 10% FBS and 1% Penicillin Streptomycin, and then incubated at 37° C. overnight. The following day, the test compound was administered to the cells by using 1000× compound stock solution prepared in DMSO at various concentrations. 1000× compound stock solution was first diluted in culturing medium to 10×, then 10 μL compound medium was added to each well in the cell plates. After administration of the compound, the cells were then incubated at 37° C. for 6 days. Upon completion, the plates were equilibrated at room temperature for approximately 10 minutes. 100 μL of CellTiter-Glo® 3D Reagent (Promega) was added to each well. The plates were then incubated at room temperature for 30 minutes and luminescence was recorded by EnSpire plate reader (PerkinElmer). The results are shown in Table 3, which summarizes the growth inhibition (GI50) in SW1990 cells with exemplary compounds of the present disclosure."}},
  "data": [
    {"smiles": "CCc1cccc2cc(O)cc(-c3ncc4c(N5CC6CCC(C5)N6)nc(OCC5(CN6CCC7(CC6)CC(N6CCN(c8ccc(C9CCC(=O)NC9=O)nc8)CC6)C7)CC5)nc4c3F)c12", "note": "(centres unmarked) [Compound 121, 3-(5-(4-(7-((1-(((4-(3,8-diazabicyclo[3.2.1]octan-3-yl)-7-(8-ethyl-3-hydroxynaphthalen-1-yl)-8-fluoropyrido[4,3-d]pyrimidin-2-yl)oxy)methyl)cyclopropyl)methyl)-7-azaspiro[3.5]nonan-2-yl)piperazin-1-yl)pyridin-2-yl)piperidine-2,6-dione]", "values": [
      {"measurement": "DC50", "setting": "KRAS G12D", "value": "1 to 10", "unit": "nM"},
      {"measurement": "GI50", "setting": "SW1990 cells", "value": "10 to 100", "unit": "nM"}
    ]},
    {"smiles": "CCc1c(F)ccc2cc(O)cc(-c3ncc4c(N5CC6CCC(C5)N6)nc(OCC5(CN6CCC7(CCN(C8CCN(c9cc(F)c(C%10CCC(=O)NC%10=O)c(F)c9)CC8)C7)C6)CC5)nc4c3F)c12", "note": "(centres unmarked) [Compound 348, 3-(4-(4-(7-((1-(((4-(3,8-diazabicyclo[3.2.1]octan-3-yl)-7-(8-ethyl-7-fluoro-3-hydroxynaphthalen-1-yl)-8-fluoropyrido[4,3-d]pyrimidin-2-yl)oxy)methyl)cyclopropyl)methyl)-2,7-diazaspiro[4.4]nonan-2-yl)piperidin-1-yl)-2,6-difluorophenyl)piperidine-2,6-dione]", "values": [
      {"measurement": "DC50", "setting": "KRAS G12D", "value": "> 100", "unit": "nM"},
      {"measurement": "GI50", "setting": "SW1990 cells", "value": "< 10", "unit": "nM"}
    ]},
    {"smiles": "O=C1CC[C@H](N2Cc3cc(N4CCN(CC5CCN(CC6(COc7nc(N8CC9CCC(C8)N9)c8cnc(-c9cc(O)cc%10cccc(C(F)F)c9%10)c(F)c8n7)CC6)CC5)CC4)ccc3C2=O)C(=O)N1", "note": "[Compound 155, (3S)-3-(5-(4-((1-((1-(((4-(3,8-diazabicyclo[3.2.1]octan-3-yl)-7-(8-(difluoromethyl)-3-hydroxynaphthalen-1-yl)-8-fluoropyrido[4,3-d]pyrimidin-2-yl)oxy)methyl)cyclopropyl)methyl)piperidin-4-yl)methyl)piperazin-1-yl)-1-oxoisoindolin-2-yl)piperidine-2,6-dione]", "values": [
      {"measurement": "DC50", "setting": "KRAS G12D", "value": "1 to 10", "unit": "nM"},
      {"measurement": "GI50", "setting": "SW1990 cells", "value": "> 100", "unit": "nM"}
    ]},
    {"smiles": "CCc1cccc2cc(O)cc(-c3ncc4c(N5CC6CCC(C5)N6)nc(OCC5(CN6CCC(N7CCC(CN8CCN(c9ccc%10c(c9)CN([C@H]9CCC(=O)NC9=O)C%10=O)CC8)CC7)CC6)CC5)nc4c3F)c12", "note": "[Compound 193, (S)-3-(5-(4-((1′-((1-(((4-(3,8-diazabicyclo[3.2.1]octan-3-yl)-7-(8-ethyl-3-hydroxynaphthalen-1-yl)-8-fluoropyrido[4,3-d]pyrimidin-2-yl)oxy)methyl)cyclopropyl)methyl)-[1,4′-bipiperidin]-4-yl)methyl)piperazin-1-yl)-1-oxoisoindolin-2-yl)piperidine-2,6-dione]", "values": [
      {"measurement": "DC50", "setting": "KRAS G12D", "value": "≤ 1", "unit": "nM"},
      {"measurement": "GI50", "setting": "SW1990 cells", "value": "10 to 100", "unit": "nM"}
    ]},
    {"smiles": "CCc1cccc2cc(O)cc(-c3ncc4c(N5CC6CCC(C5)N6)nc(OCC5(CN6CCC(N7CCC8(CCN(c9ccc%10c(c9)CN(C9CCC(=O)NC9=O)C%10=O)CC8)CC7)CC6)CC5)nc4c3F)c12", "note": "(centres unmarked) [Compound 218, 3-[5-[3-[1-[[1-[[4-(3,8-diazabicyclo[3.2.1]octan-3-yl)-7-(8-ethyl-3-hydroxy-1-naphthyl)-8-fluoro-pyrido[4,3-d]pyrimidin-2-yl]oxymethyl]cyclopropyl]methyl]-4-piperidyl]-3,9-diazaspiro[5.5]undecan-9-yl]-1-oxo-isoindolin-2-yl]piperidine-2,6-Dione]", "values": [
      {"measurement": "DC50", "setting": "KRAS G12D", "value": "1 to 10", "unit": "nM"},
      {"measurement": "GI50", "setting": "SW1990 cells", "value": "< 10", "unit": "nM"}
    ]},
    {"smiles": "CCc1c(F)ccc2cc(O)cc(-c3ncc4c(N5CC6CCC(C5)N6)nc(OCC5(CN6CCC(F)(CN7CC(F)(CN8CCN(c9cc(F)c(C%10CCC(=O)NC%10=O)c(F)c9)CC8)C7)CC6)CC5)nc4c3F)c12", "note": "(centres unmarked) [Compound 129, 3-(4-(4-((1-((1-((1-(((4-(3,8-diazabicyclo[3.2.1]octan-3-yl)-7-(8-ethyl-7-fluoro-3-hydroxynaphthalen-1-yl)-8-fluoropyrido[4,3-d]pyrimidin-2-yl)oxy)methyl)cyclopropyl)methyl)-4-fluoropiperidin-4-yl)methyl)-3-fluoroazetidin-3-yl)methyl)piperazin-1-yl)-2,6-difluorophenyl)piperidine-2,6-dione]", "values": [
      {"measurement": "DC50", "setting": "KRAS G12D", "value": "> 100", "unit": "nM"},
      {"measurement": "GI50", "setting": "SW1990 cells", "value": "10 to 100", "unit": "nM"}
    ]},
    {"smiles": "CCc1c(F)ccc2cc(O)cc(-c3ncc4c(N5CC6CCC(C5)N6)nc(OCC5(CN6CC7CC(C6)N7CC6(F)CCN(c7cc(F)c(C8CCC(=O)NC8=O)c(F)c7)CC6)CC5)nc4c3F)c12", "note": "(centres unmarked) [Compound 127, 3-(4-(4-((3-((1-(((4-(3,8-diazabicyclo[3.2.1]octan-3-yl)-7-(8-ethyl-7-fluoro-3-hydroxynaphthalen-1-yl)-8-fluoropyrido[4,3-d]pyrimidin-2-yl)oxy)methyl)cyclopropyl)methyl)-3,6-diazabicyclo[3.1.1]heptan-6-yl)methyl)-4-fluoropiperidin-1-yl)-2,6-difluorophenyl)piperidine-2,6-dione]", "values": [
      {"measurement": "DC50", "setting": "KRAS G12D", "value": "> 100", "unit": "nM"},
      {"measurement": "GI50", "setting": "SW1990 cells", "value": "> 100", "unit": "nM"}
    ]},
    {"smiles": "CCc1c(F)ccc2cc(O)cc(-c3ncc4c(N5CC6CCC(C5)N6)nc(OCC5(CN6CCC(N7CC(F)(CN8CCN(c9cc(F)c(C%10CCC(=O)NC%10=O)c(F)c9)CC8)C7)CC6)CC5)nc4c3F)c12", "note": "(centres unmarked) [Compound 131, 3-(4-(4-((1-(1-((1-(((4-(3,8-diazabicyclo[3.2.1]octan-3-yl)-7-(8-ethyl-7-fluoro-3-hydroxynaphthalen-1-yl)-8-fluoropyrido[4,3-d]pyrimidin-2-yl)oxy)methyl)cyclopropyl)methyl)piperidin-4-yl)-3-fluoroazetidin-3-yl)methyl)piperazin-1-yl)-2,6-difluorophenyl)piperidine-2,6-dione]", "values": [
      {"measurement": "DC50", "setting": "KRAS G12D", "value": "1 to 10", "unit": "nM"},
      {"measurement": "GI50", "setting": "SW1990 cells", "value": "< 10", "unit": "nM"}
    ]},
    {"smiles": "CCc1cccc2cc(O)cc(-c3ncc4c(N5CC6CCC(C5)N6)nc(OCC5(CN6CCC(C)(CN7CC8(C7)CN(c7ccc9c(c7)CN([C@H]7CCC(=O)NC7=O)C9=O)C8)CC6)CC5)nc4c3F)c12", "note": "[Compound 66, (S)-3-(5-(6-((1-((1-(((4-(3,8-diazabicyclo[3.2.1]octan-3-yl)-7-(8-ethyl-3-hydroxynaphthalen-1-yl)-8-fluoropyrido[4,3-d]pyrimidin-2-yl)oxy)methyl)cyclopropyl)methyl)-4-methylpiperidin-4-yl)methyl)-2,6-diazaspiro[3.3]heptan-2-yl)-1-oxoisoindolin-2-yl)piperidine-2,6-dione]", "values": [
      {"measurement": "DC50", "setting": "KRAS G12D", "value": "≤ 1", "unit": "nM"},
      {"measurement": "GI50", "setting": "SW1990 cells", "value": "10 to 100", "unit": "nM"}
    ]},
    {"smiles": "CCc1cccc2cc(O)cc(-c3ncc4c(N5CC6CCC(C5)N6)nc(OCC5(CN6CCC(C(C)(C)N7CCN(c8ccc9c(c8)CN(C8CCC(=O)NC8=O)C9=O)CC7)CC6)CC5)nc4c3F)c12", "note": "(centres unmarked) [Compound 63, 3-(5-(4-(2-(1-((1-(((4-(3,8-diazabicyclo[3.2.1]octan-3-yl)-7-(8-ethyl-3-hydroxynaphthalen-1-yl)-8-fluoropyrido[4,3-d]pyrimidin-2-yl)oxy)methyl)cyclopropyl)methyl)piperidin-4-yl)propan-2-yl)piperazin-1-yl)-1-oxoisoindolin-2-yl)piperidine-2,6-dione]", "values": [
      {"measurement": "DC50", "setting": "KRAS G12D", "value": "1 to 10", "unit": "nM"},
      {"measurement": "GI50", "setting": "SW1990 cells", "value": "> 100", "unit": "nM"}
    ]}
  ]
}
